Results reported in patent publication US10981932B2, “Macrocyclic indole derivatives” (Bayer Aktiengesellschaft, priority 2016, dated 2021).
Where “and” joins values, the source holds several entries; their conditions need not be identical. Equal values may be shown once. Where a name gives a salt, the structure may show the parent alone. Read-outs that look alike come from different tables or passages of the source.

Key:
MCL-1 = MCL-1 (Homo sapiens, UniProt Q07820); assay: Protein-protein interaction assay MCL-1/Noxa BH3 peptide (MCL-1 assay), TR-FRET; type: binding; conditions: MBP-MCL-1 / Noxa BH3-derived peptide, median
Sequence of MCL-1 (Q07820 whole entry): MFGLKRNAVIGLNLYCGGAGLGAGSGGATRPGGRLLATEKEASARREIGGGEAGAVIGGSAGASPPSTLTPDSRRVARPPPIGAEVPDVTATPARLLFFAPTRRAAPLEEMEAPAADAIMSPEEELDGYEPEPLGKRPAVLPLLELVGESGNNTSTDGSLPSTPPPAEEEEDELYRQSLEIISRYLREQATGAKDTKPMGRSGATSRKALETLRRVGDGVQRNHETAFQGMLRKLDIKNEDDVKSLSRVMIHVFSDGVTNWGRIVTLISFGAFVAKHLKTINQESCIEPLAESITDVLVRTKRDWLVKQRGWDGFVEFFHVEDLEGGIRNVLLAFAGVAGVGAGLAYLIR
In short: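 MBP-MCL-1 (1 nM final) was preincubated 10 min at 22 °C with compounds (11 concentrations, 0.1 nM–20 μM, duplicates) in Tris pH 7 buffer with NaCl, KF, Tween-20, DTT and BGG. After 1 h at 22 °C in the dark plus overnight at 4 °C, anti-MBP Eu-cryptate/streptavidin-XL665 TR-FRET was read; IC50 came from a 4-parameter fit.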

SUDHL5 [1] = assay: Induction of caspase-3/7 activity (Caspase-Glo 3/7), SUDHL5; type: cell-based; conditions: caspase-3/7 induction, SUDHL5 cells, 3 h treatment, median
In short: (§1)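 Caspase-Glo 3/7 luminescence measured after 3 h compound exposure at 37 °C in SUDHL10 and SUDHL5 cells. EC50 values come from background-corrected signals, with curve bottom set to 1 and plateau set to maximal induction by the reference compound.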

SUDHL10 [2] = assay: Induction of caspase-3/7 activity (Caspase-Glo 3/7), SUDHL10; type: cell-based; conditions: caspase-3/7 induction, SUDHL10 cells, 3 h treatment, median
In short: as §1

SUDHL5 [3] = assay: Anti-proliferative effect (CellTiter-Glo, 72 h), SUDHL5; type: cell-based; conditions: SUDHL5 cells, antiproliferation, 72 h incubation, median, read-out: Antiproli SUDHL5 [M] (median)
In short: (§2)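 Anti-proliferative activity is derived from ATP-based luminescence (CellTiter-Glo) in cells exposed to compound for 72 h at 37 °C, set against a time zero plate read at seeding.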

SUDHL10 [4] = assay: Anti-proliferative effect (CellTiter-Glo, 72 h), SUDHL10; type: cell-based; conditions: SUDHL10 cells, antiproliferation, 72 h incubation, median, read-out: Antiproli SUDHL10 [M] (median)
In short: as §2

OPM2 = assay: Anti-proliferative effect (CellTiter-Glo, 72 h), OPM2; type: cell-based; conditions: OPM2 cells, median, read-out: IC50 antiproliferation assay OPM2 [M] (median)
In short: as §2

A2780 = assay: Anti-proliferative effect (CellTiter-Glo, 72 h), A2780; type: cell-based; conditions: A2780 cells, median, read-out: IC50 antiproliferation assay A2780 [M] (median)
In short: as §2

SUDHL5 [5] = assay: Induction of cytotoxicity (CellTiter-Glo, 5 h), SUDHL5
SUDHL10 [6] = assay: Induction of cytotoxicity (CellTiter-Glo, 5 h), SUDHL10
[7] = read-out: Cytotox SUDHL5 [M] (median), SUDHL5 cells, cytotoxicity induction, CellTiter-Glo, 5 h incubation, median
[8] = Homo sapiens, SU-DHL10, 5 h, read-out: Cytotox SUDHL10 [M] (median), SUDHL10 cells, cytotoxicity induction, CellTiter-Glo, 5 h incubation, median
[9] = Homo sapiens, SU-DHL-5, 5 h, read-out: Cytotox SUDHL5 [M] (median), SUDHL5 cells, cytotoxicity induction, CellTiter-Glo, 5 h incubation, median
[10] = read-out: Cytotox SUDHL10 [M] (median), SUDHL10 cells, cytotoxicity induction, CellTiter-Glo, 5 h incubation, median

| SMILES | IC50 (MCL-1) | EC50 (SUDHL5 [1]) | EC50 (SUDHL10 [2]) | IC50 (SUDHL5 [3]) | IC50 (SUDHL10 [4]; Homo sapiens, SU-DHL10, 72 h) | IC50 (OPM2; Homo sapiens, OPM-2, 72 h) | IC50 (A2780; Homo sapiens, A2780, 72 h) | IC50 (SUDHL5 [5]; [7]) | IC50 (SUDHL10 [6]; [8]) | EC50 (SUDHL5 [1]; Homo sapiens, SU-DHL-5, 3 h) | EC50 (SUDHL10 [2]; Homo sapiens, SU-DHL10, 3 h) | IC50 (SUDHL5 [3]; Homo sapiens, SU-DHL-5, 72 h) | IC50 (SUDHL5 [5]; [9]) | IC50 (SUDHL10 [4]) | IC50 (SUDHL10 [6]; [10]) | IC50 (OPM2) | IC50 (A2780) |
| --- | --- | --- | --- | --- | --- | --- | --- | --- | --- | --- | --- | --- | --- | --- | --- | --- | --- |
| Cn1nc(COc2ccc(N3CCOCC3)cc2)c2c1COCCCCn1c(C(=O)O)c(CCCOc3cccc4ccccc34)c3cccc-2c31 (single isomer, unassigned; enantiomer 1) [Example 122, 1-methyl-3-{[4-(morpholin-4-yl)phenoxy]methyl}-7-[3-(naphthalen-1-yloxy)propyl]-1,10,11,12,13,15-hexahydropyrazolo[4′,3′:9,10][1,6]oxazacycloundecino[8,7,6-hi]indole-8-carboxylic Acid (Enantiomer 1)] | 0.0577 µM | 27.5 µM | 21.8 µM | 1.03e-05 M | 1.17e-05 M | 2.79e-06 M | 7.4e-06 M | 2.92e-05 M | > 3.3e-05 M |  |  |  |  |  |  |  |  |
| Cc1ccc2c(CCCOc3cccc4ccccc34)c(C(=O)O)n3c2c1-c1c(nn(C)c1C)CN(C)CCC3 (racemic) [Example 072, (rac)-7,10,11,12-tetramethyl-1-[3-(naphthalen-1-yloxy)propyl]-4,5,6,7,8,10-hexahydropyrazolo[3′,4′:7,8][1,5]diazecino[9,10,1-hi]indole-2-carboxylic Acid] | 0.0034 µM |  |  |  | 5.65e-06 M | 8.23e-06 M | 9.51e-06 M |  | 6.12e-06 M | 4.54 µM | 4.91 µM | 1.11e-06 M | 3.43e-06 M |  |  |  |  |
| Cn1nc(COc2ccc(S(C)(=O)=O)cc2)c2c1COCCCCn1c(C(=O)O)c(CCCOc3cccc4ccccc34)c3cccc-2c31 (single isomer, unassigned) [Example 1-55, (−)-1-methyl-3-{[4-(methylsulfonyl)phenoxy]methyl}-7-[3-(naphthalen-1-yloxy)propyl]-1,10,11,12,13,15-hexahydropyrazolo[4′,3′:9,10][1,6]oxazacycloundecino[8,7,6-hi]indole-8-carboxylic Acid] | 0.167 µM | > 33 µM | > 33 µM | 1.34e-05 M |  | > 3.3e-05 M | 2.59e-05 M | > 3.3e-05 M | 1.73e-05 M |  |  |  |  | 9.09e-06 M |  |  |  |
| COCc1nn(C)c2c1-c1cccc3c(CCCOc4cccc5ccccc45)c(C(=O)O)n(c13)CCCCOC2 (single isomer, unassigned; enantiomer 1) [Example 159, 3-(methoxymethyl)-1-methyl-7-[3-(naphthalen-1-yloxy)propyl]-1,10,11,12,13,15-hexahydropyrazolo[4′,3′:9,01][1,6]oxazacycloundecino[8,7,6-hi]indole-8-carboxylic acid-N-ethylethanamine Salt (Enantiomer 1)] | 0.0238 µM |  | > 33 µM | 1.75e-05 M |  | > 3.3e-05 M | > 3.3e-05 M |  | 3.05e-05 M | 13.8 µM | 28.6 µM |  | 1.76e-05 M | 2.98e-05 M and > 3.3e-05 M | > 3.3e-05 M |  |  |
| CCOCc1nn(C)c2c1-c1cccc3c(CCCOc4cccc5c4CCCC5)c(C(=O)O)n(c13)CCCCOC2 (single isomer, unassigned; enantiomer 1) [Example 171, 3-(ethoxymethyl)-1-methyl-7-[3-(5,6,7,8-tetrahydronaphthalen-1-yloxy)propyl]-1,10,11,12,13,15-hexahydropyrazolo[4′,3′:9,10][1,6]oxazacycloundecino[8,7,6-hi]indole-8-carboxylic Acid (Enantiomer 1)] | 0.00268 µM | 6.48 µM | 13.4 µM |  |  |  | > 3.3e-05 M | 5.08e-06 M |  |  |  | 2.24e-06 M |  | 6.45e-06 M | 1.39e-05 M | 1.23e-05 M |  |
| CN1CCCn2c(C(=O)O)c(CCCOc3cccc4ccccc34)c3cccc(c32)-c2c(CN3CCOCC3)nn(C)c2C1 (single isomer, unassigned; enantiomer 2) [Example 1-44, (−)-7,9-dimethyl-11-(morpholin-4-ylmethyl)-1-[3-(naphthalen-1-yloxy)propyl]-4,5,6,7,8,9-hexahydropyrazolo[3′,4′:7,8][1,5]diazecino[9,10,1-hi]indole-2-carboxylic Acid (Enantiomer 2)] | 0.0177 µM | 12.4 µM | 9.76 µM | 6.96e-06 M |  |  |  | 1.26e-05 M |  |  |  |  |  | 7.73e-06 M |  | 1.13e-05 M | 1.95e-05 M |
| Cc1nn(C)c2c1-c1cccc3c(CCCOc4cccc5c4CCCC5)c(C(=O)O)n(c13)CCCCOC2 (racemic) [Example 006, (rac)-1,3-dimethyl-7-[3-(5,6,7,8-tetrahydronaphthalen-1-yloxy)propyl]-1,10,11,12,13,15-hexahydropyrazolo[4′,3′:9,10][1,6]oxazacycloundecino[8,7,6-hi]indole-8-carboxylic Acid] | 0.00831 µM |  |  |  | 4.99e-06 M | 1.9e-05 M | > 3.3e-05 M |  | 1.99e-05 M | 6.95 µM |  | 3.22e-06 M | 7.28e-06 M |  | > 3.3e-05 M | > 3.3e-05 M | 2.49e-05 M |
| CN(C)S(=O)(=O)N1CCN(c2ccc(OCc3nn(C)c4c3-c3cccc5c(CCCOc6cccc7ccccc67)c(C(=O)O)n(c35)CCCCOC4)cc2)CC1 (racemic) [Example 1-18, (rac)-3-({4-[4-(dimethylsulfamoyl)piperazin-1-yl]phenoxy}methyl)-1-methyl-7-[3-(naphthalen-1-yloxy)propyl]-1,10,11,12,13,15-hexahydropyrazolo[4′,3′:9,10][1,6]oxazacycloundecino[8,7,6-hi]indole-8-carboxylic Acid] |  |  |  |  | 1.33e-06 M | 1.57e-06 M | 8.79e-06 M |  | 2.29e-06 M | 1.22 µM | 1.94 µM | 9.33e-07 M | 1.75e-06 M |  |  |  |  |
| CN1CCCn2c(C(=O)O)c(CCCOc3cccc4ccccc34)c3cccc(c32)-c2c(COc3ccccc3)nn(C)c2C1 (single isomer, unassigned) [Example 1-82, 7,9-dimethyl-1-[3-(naphthalen-1-yloxy)propyl]-11-(phenoxymethyl)-4,5,6,7,8,9-hexahydropyrazolo[3′,4′:7,8][1,5]diazecino[9,10,1-hi]indole-2-carboxylic Acid] | 0.113 µM |  |  |  | 1.42e-05 M | > 3.3e-05 M |  |  | > 3.3e-05 M | > 33 µM | > 33 µM | 2.77e-05 M | > 3.3e-05 M |  |  |  |  |
| Cc1cc(OCCCc2c(C(=O)O)n3c4c(cccc24)-c2c(COc4ccccc4)nn(C)c2CN(C)CCC3)cc(C)c1Cl (single isomer, unassigned) [Example 1-86, 1-[3-(4-chloro-3,5-dimethylphenoxy)propyl]-7,9-dimethyl-1-(phenoxymethyl)-4,5,6,7,8,9-hexahydropyrazolo[3′,4′:7,8][1,5]diazecino[9,10,1-hi]indole-2-carboxylic Acid] | 0.278 µM | > 33 µM | > 33 µM | 1.96e-05 M |  |  |  | > 3.3e-05 M |  |  |  |  |  | 9.45e-06 M | > 3.3e-05 M | 2.43e-05 M |  |
